Experimental data as given in PMC11808397, “Development of selective nanomolar cyclic peptide ligands as GBA1 enzyme stabilisers” (RSC Chemical Biology, 2025).

Tests used:
[1] = tested on: rhGBA1 (Cerezyme) in plasma; test: Stabilisation of rhGBA1 in plasma, 4-MU activity; format: biochemical, human; settings: rhGBA1 10 nM in plasma, peptides 0.001-10 μM or Ambroxol 100-1000 μM, 0-120 minutes, 0.5% DMSO
Experimental: We then investigated whether peptides L4, D8, and D12 could stabilise rhGBA1 in plasma. […] The solutions were then incubated with 4-MU-β-D-Glu for an additional 30 minutes, and the remaining rhGBA1 activity was determined.
Specifically, high concentrations of all peptides (10–1 μM) led to enzyme binding but also GBA1 inhibition after short incubations (0 to 30 minutes). […] To discard potential degradation of D8 and D12 during plasma experiments, the peptides were incubated in plasma at 0.1 μM for 2 hours, followed by the addition of rhGBA1 to measure its activity. This was compared to controls where D8 and D12 were added to plasma and directly tested for GBA1 activity.
Fig. 3 Stabilisation of rhGBA1 (10 nM) in plasma by cyclic peptides D8 and D12. […] Control contained 0.5% DMSO. Error ranges depict standard deviations from n = 3 replicates, measured in technical duplicates. *p < 0.05, **p < 0.01, ***p < 0.001.
Selective Cyclic Peptide Ligands as GBA1 Stabilizers Katzy et al. curves were determined in triplicate using the Tycho NT.6 (NanoTemper), according to manufacturer […]
2.9. Cerezyme Stabilization studies in plasma […]
Specific GBA1 activity was determined as described above, with 25 µL of sample incubated for 30 min with 3.7 mM 4MU-β-Glc substrate.

[2] = molecular target: T1, recombinant human GBA1 (rhGBA1, Cerezyme) (Homo sapiens, UniProt P04062, R534H); test: Thermostability of rhGBA1, label-free differential scanning fluorimetry (Tycho NT.6); format: binding; settings: rhGBA1 at 1 μM, 20 mM HEPES pH 7.0, 100 mM NaCl, 0.5% DMSO, 2 h room temperature; N. D. = not determined due to a lack of stabilisation effect
T1 construct: purchased Cerezyme
T1 sequence (P04062 40-536 R534H): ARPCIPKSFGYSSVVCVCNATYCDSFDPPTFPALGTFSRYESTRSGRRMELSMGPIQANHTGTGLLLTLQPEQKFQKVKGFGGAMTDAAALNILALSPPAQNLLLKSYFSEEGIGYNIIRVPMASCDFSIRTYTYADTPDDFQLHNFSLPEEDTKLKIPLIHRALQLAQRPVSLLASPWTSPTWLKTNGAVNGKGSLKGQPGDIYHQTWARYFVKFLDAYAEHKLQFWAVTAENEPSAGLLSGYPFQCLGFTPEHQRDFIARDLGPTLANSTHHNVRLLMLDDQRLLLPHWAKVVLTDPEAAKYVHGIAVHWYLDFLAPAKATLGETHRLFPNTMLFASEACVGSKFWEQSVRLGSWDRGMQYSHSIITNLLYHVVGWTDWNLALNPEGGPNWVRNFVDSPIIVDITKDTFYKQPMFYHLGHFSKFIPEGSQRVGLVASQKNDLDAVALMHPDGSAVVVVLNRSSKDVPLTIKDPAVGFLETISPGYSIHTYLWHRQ
Experimental: Samples were incubated at room temperature for 2
hours before measurement in the Tycho NT6.
Thermostability assays in rhGBA (Cerezyme)
Varying concentrations of peptides were incubated with 1 µM rhGBA1 in 20 mM HEPES pH 7.0 with 100 mM NaCl, with a final DMSO concentration of 0.5 %, for 2 hours at room temperature. Melting

Compound: Nc1c(Br)cc(Br)cc1CN[C@H]1CC[C@H](O)CC1 [Ambroxol, reference compound]
- stabilisation of rhGBA1 against degradation in plasma [1]: no stabilisation effect
- ΔTi,max [2]: 12.3 ± 5.4 °C
